The values below come from ChEMBL document CHEMBL3393020, “Biofilm inhibition of linezolid-like Schiff bases: synthesis, biological activity, molecular docking and in silico ADME prediction” (Bioorg Med Chem Lett, 2015).

Series [1] has as its system Pseudomonas aeruginosa. Briefly: Inhibition of biofilm formation of Pseudomonas aeruginosa PAO1 incubated for 18 hrs by crystal violet staining based spectroscopy. In kind it is functional, organism-based. The conditions noted are these: PAO1, 18 h.
For another series, the system named is Escherichia coli. Briefly: Antibacterial activity against Escherichia coli NCIM-2256 incubated for 24 hrs by two fold serial dilution method. Type of series: functional. The conditions noted are these: NCIM-2256, 24 h.
The test system of another series is Bacillus subtilis. Briefly: Antibacterial activity against Bacillus subtilis NCIM-2063 incubated for 24 hrs by two fold serial dilution method. Type of series: functional. Conditions: NCIM-2063, 24 h.
Series [2] can be described thus: Retardation factor of the compound. Type of series: physicochemical.
Series [3] deals with Pseudomonas aeruginosa. Briefly: Antibacterial activity against Pseudomonas aeruginosa NCIM-2036 incubated for 24 hrs by two fold serial dilution method. Type of series: functional. Conditions: NCIM-2036, 24 h.
The test system of series [4] is Pseudomonas aeruginosa. Briefly: Effect on planktonic cells growth of Pseudomonas aeruginosa PAO1 incubated for 15 mins by field emission scanning electron microscopy. In kind it is organism-based. Conditions: 0.25 h.
Series [5] deals with Pseudomonas aeruginosa. Briefly: Inhibition of biofilm formation of Pseudomonas aeruginosa PAO1 incubated for 15 mins by field emission scanning electron microscopy. Type of series: functional, organism-based.

≈ marks a conversion by molar mass, not a printed value. Calls of active or inactive are those of the source. The calls are words filed in the database; no cut-off is given here.

As a reminder, the IC50 is the point on the concentration scale where inhibition reaches its midpoint. Lower therefore signals inhibition by little substance. As a reminder, the MIC is the lowest concentration found to suppress growth. A lower MIC goes with greater potency. `Fc1cc(/N=C/c2ccoc2)ccc1N1CCOCC1`: 35.9 µM corresponded to half-maximal inhibition in the series with Pseudomonas aeruginosa [1] (IC50). In addition, the MIC in the series on Escherichia coli stood at 35 µg/mL (≈ 128 µM); with Bacillus subtilis, 40 µg/mL (≈ 146 µM); against Pseudomonas aeruginosa [3], 30 µg/mL (≈ 109 µM). The same compound displayed a Rf in series [2] of 0.61.
In the series with Pseudomonas aeruginosa [1], `Fc1ccc(/C=N/c2ccc(N3CCOCC3)c(F)c2)cc1` had an IC50 of 31.1 µM. The MIC against Escherichia coli was 30 µg/mL (≈ 99.2 µM); in the series with Bacillus subtilis, 20 µg/mL (≈ 66.2 µM); with Pseudomonas aeruginosa [3] it was 20 µg/mL (≈ 66.2 µM). This compound had a Rf in series [2] of 0.52.
`Fc1cc(/N=C/c2c(Cl)cccc2Cl)ccc1N1CCOCC1` gave an IC50 in the series with Pseudomonas aeruginosa [1] of 27.5 µM. The MIC in the series on Escherichia coli came to 25 µg/mL (≈ 70.8 µM); against Bacillus subtilis, 20 µg/mL (≈ 56.6 µM); in the series with Pseudomonas aeruginosa [3] it was 30 µg/mL (≈ 84.9 µM). The compound further returned a Rf in series [2] of 0.48.
For `Oc1ccc(/C=N/c2ccc(N3CCOCC3)c(F)c2)cc1O`, in that order: 31.6 µM, 30 µg/mL (≈ 94.8 µM), 25 µg/mL (≈ 79 µM), 20 µg/mL (≈ 63.2 µM) and 0.59.
On to `Fc1cc(/N=C/c2cc3ccccc3nc2Cl)ccc1N1CCOCC1`, for which the IC50 with Pseudomonas aeruginosa [1] was 13 µM. In addition, the Activity result in the series on Pseudomonas aeruginosa [4] is on record as “Non-toxic”. Further, the MIC against Escherichia coli was 10 µg/mL (≈ 27 µM); with Bacillus subtilis it was 5 µg/mL (≈ 13.5 µM); in the series with Pseudomonas aeruginosa [3], 2.5 µg/mL (≈ 6.76 µM). The compound further had a Rf in series [2] of 0.46. Also, in the series with Pseudomonas aeruginosa [5], the inhibition entry is “Active”.
Take `CC(=O)NC[C@H]1CN(c2ccc(N3CCOCC3)c(F)c2)C(=O)O1` [LINEZOLID]: it took 15.9 µM to reach half-maximal inhibition in the series on Pseudomonas aeruginosa [1] (IC50). Also, the MIC against Escherichia coli stood at 2 µg/mL (≈ 5.93 µM); with Bacillus subtilis, 3 µg/mL (≈ 8.89 µM); in the series with Pseudomonas aeruginosa [3] it was 2.5 µg/mL (≈ 7.41 µM).
In the series on Pseudomonas aeruginosa [1], `Fc1cc(/N=C/c2c[nH]c3ccccc23)ccc1N1CCOCC1` registered an IC50 of 29.1 µM. Also, the figures for the MIC against Escherichia coli, against Bacillus subtilis and in the series on Pseudomonas aeruginosa [3] were 40 µg/mL (≈ 124 µM), 35 µg/mL (≈ 108 µM) and 25 µg/mL (≈ 77.3 µM), respectively. The Rf in series [2] was 0.52.
In the series on Pseudomonas aeruginosa [1], `Cc1cccc2cc(/C=N/c3ccc(N4CCOCC4)c(F)c3)c(Cl)nc12` came in with an IC50 of 15.6 µM. Besides, the Activity entry in the series on Pseudomonas aeruginosa [4] is recorded as “Non-toxic”. The minimum inhibitory concentration (MIC) amounted to 10 µg/mL (≈ 26.1 µM) in the series with Escherichia coli, 10 µg/mL (≈ 26.1 µM) against Bacillus subtilis and 3.5 µg/mL (≈ 9.12 µM) against Pseudomonas aeruginosa [3]. The Rf in series [2] amounted to 0.44. Further, the inhibition result in the series with Pseudomonas aeruginosa [5] was “Active”.
`O=C(O)c1cn(C2CC2)c2cc(N3CCNCC3)c(F)cc2c1=O` [CIPROFLOXACIN] displayed an MIC in the series with Escherichia coli of 25 µg/mL (≈ 75.4 µM).
In turn, `COc1ccc(/C=N/c2ccc(N3CCOCC3)c(F)c2)cc1OC` registered an IC50 with Pseudomonas aeruginosa [1] of 27.9 µM. In addition, the MIC in the series with Escherichia coli, with Bacillus subtilis and against Pseudomonas aeruginosa [3] was 20 µg/mL (≈ 58.1 µM) each time. In series [2], the Rf is listed as 0.55.
`Fc1cc(/N=C/c2ccccc2)ccc1N1CCOCC1` showed an IC50 in the series with Pseudomonas aeruginosa [1] of 39.4 µM. Besides, the minimum inhibitory concentration (MIC) against Escherichia coli turned out to be 35 µg/mL (≈ 123 µM); against Bacillus subtilis, 30 µg/mL (≈ 106 µM); with Pseudomonas aeruginosa [3], 20 µg/mL (≈ 70.3 µM). The Rf in series [2] is on record as 0.64.
